Measurements from PubChem BioAssay AID248 (DTP/NCI, 2004).
Where “and” joins values, the source holds several entries; their conditions need not be identical. Identical values can stand only once. Toxic doses and inconclusive results are not listed.

Test system: L1210 leukemia ip in BDF1 mice, survival T/C
Test: NCI In Vivo Anticancer Drug Screen. Data for tumor model L1210 Leukemia (intraperitoneal) in B6D2F1 (BDF1) mice
Conditions: endpoint: mean survival time, higher = longer survival
Method in brief: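 Survival endpoint. Drug-treated group vs vehicle group, expressed as T divided by C. Tumor passaged by transplantation.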

[1] = dose: 100.0 mg/kg/injection, schedule: Q04DX003 (ip), vehicle: carboxymethylcellulose (CMC)
[2] = dose: 200.0 mg/kg/injection, schedule: Q04DX003 (ip), vehicle: carboxymethylcellulose (CMC)
[3] = dose: 400.0 mg/kg/injection, schedule: Q04DX003 (ip), vehicle: carboxymethylcellulose (CMC)

CCCCOP(=O)(OCCCC)Oc1ccc2ccccc2c1
T/C (dose: 50.0 mg/kg/injection, schedule: Q01DX009 (ip), vehicle: other): 97 % of control and 88 % of control | T/C (dose: 100.0 mg/kg/injection, schedule: Q01DX009 (ip), vehicle: other): 94 % of control | T/C (dose: 100.0 mg/kg/injection, schedule: Q04DX002 (ip), vehicle: other): 94 % of control and 96 % of control | T/C [1]: 102 % of control | T/C (dose: 200.0 mg/kg/injection, schedule: Q01DX009 (ip), vehicle: other): 100 % of control and 102 % of control | T/C (dose: 200.0 mg/kg/injection, schedule: Q04DX002 (ip), vehicle: other): 96 % of control and 92 % of control | T/C [2]: 100 % of control | T/C (dose: 400.0 mg/kg/injection, schedule: Q04DX002 (ip), vehicle: other): 94 % of control and 96 % of control | T/C [3]: 97 % of control

CCCCCCCCCCCCCCCOc1ccc2ccccc2c1
T/C (dose: 100.0 mg/kg/injection, schedule: Q01DX001 (ip), vehicle: Klucel (hydroxypropylcellulose) (HPC)): 326 % of control | T/C (dose: 200.0 mg/kg/injection, schedule: Q01DX001 (ip), vehicle: Klucel (hydroxypropylcellulose) (HPC)): 326 % of control | T/C (dose: 400.0 mg/kg/injection, schedule: Q01DX001 (ip), vehicle: Klucel (hydroxypropylcellulose) (HPC)): 326 % of control

CCS(=O)(=O)c1ccc(NC(=O)OC(C)(C)C)cc1
T/C (dose: 100.0 mg/kg/injection, schedule: Q01DX001 (ip), vehicle: carboxymethylcellulose (CMC)): 94 % of control | T/C (dose: 200.0 mg/kg/injection, schedule: Q01DX001 (ip), vehicle: carboxymethylcellulose (CMC)): 94 % of control | T/C (dose: 400.0 mg/kg/injection, schedule: Q01DX001 (ip), vehicle: carboxymethylcellulose (CMC)): 100 % of control

O=C(O)c1nc(SCc2ccccc2)n(Cc2ccccc2)c1C(=O)O
T/C (dose: 100.0 mg/kg/injection, schedule: Q04DX002 (ip), vehicle: carboxymethylcellulose (CMC)): 97 % of control and 89 % of control | T/C [1]: 94 % of control and 97 % of control | T/C (dose: 200.0 mg/kg/injection, schedule: Q04DX002 (ip), vehicle: carboxymethylcellulose (CMC)): 94 % of control and 115 % of control | T/C [2]: 97 % of control and 98 % of control | T/C (dose: 400.0 mg/kg/injection, schedule: Q04DX002 (ip), vehicle: carboxymethylcellulose (CMC)): 97 % of control and 87 % of control | T/C [3]: 96 % of control

C=CCN(CC=C)C(=O)c1cc(Cl)ccc1Cl
T/C (dose: 100.0 mg/kg/injection, schedule: Q04DX002 (ip), vehicle: saline with Tween-80): 97 % of control | T/C (dose: 200.0 mg/kg/injection, schedule: Q04DX002 (ip), vehicle: saline with Tween-80): 103 % of control | T/C (dose: 400.0 mg/kg/injection, schedule: Q04DX002 (ip), vehicle: saline with Tween-80): 110 % of control

Nc1c(Br)cc(Br)c(C(=O)O)c1Br
T/C (dose: 50.0 mg/kg/injection, schedule: Q01DX009 (ip), vehicle: Klucel (hydroxypropylcellulose) (HPC)): 103 % of control | T/C (dose: 100.0 mg/kg/injection, schedule: Q01DX009 (ip), vehicle: Klucel (hydroxypropylcellulose) (HPC)): 101 % of control | T/C (dose: 200.0 mg/kg/injection, schedule: Q01DX009 (ip), vehicle: Klucel (hydroxypropylcellulose) (HPC)): 95 % of control

CCN=C(NCC)c1ccc(NC(=O)c2ccc(C(=O)Nc3ccc(C(=NCC)NCC)cc3)cc2)cc1
T/C (dose: 7.5 mg/kg/injection, schedule: Q01DX010 (oral), vehicle: saline): 98 % of control | T/C (dose: 7.5 mg/kg/injection, schedule: Q01DX Z (ip), vehicle: saline): 204 % of control | T/C (dose: 15.0 mg/kg/injection, schedule: Q01DX010 (oral), vehicle: saline): 95 % of control | T/C (dose: 15.0 mg/kg/injection, schedule: Q01DX Z (ip), vehicle: saline): 106 % of control and 109 % of control | T/C (dose: 30.0 mg/kg/injection, schedule: Q01DX010 (oral), vehicle: saline): 91 % of control | T/C (dose: 125.0 mg/kg/injection, schedule: Q01DX Z (oral), vehicle: saline): 98 % of control | T/C (dose: 125.0 mg/kg/injection, schedule: Q## X010 (oral), vehicle: saline): 108 % of control | T/C (dose: 250.0 mg/kg/injection, schedule: Q01DX Z (oral), vehicle: saline): 96 % of control | T/C (dose: 250.0 mg/kg/injection, schedule: Q## X010 (oral), vehicle: saline): 123 % of control | T/C (dose: 500.0 mg/kg/injection, schedule: Q01DX Z (oral), vehicle: saline): 109 % of control

CC[N+]1=NC2CCCC(C2)C1 (configuration not stated)
T/C (dose: 50.0 mg/kg/injection, schedule: Q01DX009 (ip), vehicle: saline): 96 % of control | T/C (dose: 100.0 mg/kg/injection, schedule: Q01DX009 (ip), vehicle: saline): 86 % of control | T/C (dose: 100.0 mg/kg/injection, schedule: Q04DX003 (ip), vehicle: saline): 101 % of control | T/C (dose: 200.0 mg/kg/injection, schedule: Q01DX009 (ip), vehicle: saline): 90 % of control | T/C (dose: 200.0 mg/kg/injection, schedule: Q04DX003 (ip), vehicle: saline): 95 % of control

CC1B(O)Nc2nc(=S)[nH]c(N)c21 (configuration not stated)
T/C (dose: 100.0 mg/kg/injection, schedule: Q04DX003 (ip), vehicle: saline sonified): 104 % of control | T/C (dose: 200.0 mg/kg/injection, schedule: Q04DX003 (ip), vehicle: saline sonified): 103 % of control

Cc1ccccc1-c1nc2ncnc(N)c2[nH]1
T/C (dose: 31.8 mg/kg/injection, schedule: Q01DX001 (ip), vehicle: Klucel (hydroxypropylcellulose) (HPC)): 104 % of control | T/C (dose: 62.5 mg/kg/injection, schedule: Q01DX001 (ip), vehicle: Klucel (hydroxypropylcellulose) (HPC)): 109 % of control | T/C (dose: 125.0 mg/kg/injection, schedule: Q01DX001 (ip), vehicle: Klucel (hydroxypropylcellulose) (HPC)): 101 % of control
